Data: ChEMBL document CHEMBL2010748, “Structure-Activity Relationship Studies of HIV-1 Integrase Oligonucleotide Inhibitors” (ACS Med Chem Lett, 2011)
pIC50: −log10 of the molar value.

Target: Human immunodeficiency virus type 1 integrase (Human immunodeficiency virus 1, UniProt Q7ZJM1)
Experiment: Inhibition of Human immunodeficiency virus 1 integrase 3'-processing activity expressed in Escherichia coli using 21-mer DNA and Mg2+ after 2 hrs by polyacrylamide gel electrophoresis

Chain of Human immunodeficiency virus type 1 integrase (Q7ZJM1 whole entry): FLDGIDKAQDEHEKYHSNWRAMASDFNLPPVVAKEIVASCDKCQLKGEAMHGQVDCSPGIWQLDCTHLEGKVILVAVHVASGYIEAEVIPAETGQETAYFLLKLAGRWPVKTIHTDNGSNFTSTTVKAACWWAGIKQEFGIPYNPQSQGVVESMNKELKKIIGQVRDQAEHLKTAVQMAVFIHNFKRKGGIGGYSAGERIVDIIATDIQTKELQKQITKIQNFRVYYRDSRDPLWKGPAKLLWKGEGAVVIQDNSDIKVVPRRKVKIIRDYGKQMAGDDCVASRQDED

pIC50	Structure (SMILES)
7.70	CCCCCCCC/C=C\CCCCCCCC(=O)NCCCOCC(O)COP(=O)(O)O[C@H]1C[C@H](n2cc(C)c(=O)[nH]c2=O)O[C@@H]1COP(=O)(O)O[C@H]1C[C@H](n2cnc3c(=O)[nH]c(N)nc32)O[C@@H]1COP(=O)(O)O[C@H]1C[C@H](n2cc(C)c(=O)[nH]c2=O)O[C@@H]1COP(=O)(O)O[C@H]1C[C@H](n2cnc3c(=O)[nH]c(N)nc32)O[C@@H]1COP(=O)(O)O[C@H]1C[C@H](n2cc(C)c(=O)[nH]c2=O)O[C@@H]1COP(=O)(O)O[C@H]1C[C@H](n2cc(C)c(=O)[nH]c2=O)O[C@@H]1COP(=O)(O)O[C@H]1C[C@H](n2cc(C)c(=O)[nH]c2=O)O[C@@H]1COP(=O)(O)O[C@H]1C[C@H](n2cc(C)c(=O)[nH]c2=O)O[C@@H]1COP(=O)(O)O[C@H]1C[C@H](n2cc(C)c(=O)[nH]c2=O)O[C@@H]1COP(=O)(O)O[C@H]1C[C@H](n2cnc3c(=O)[nH]c(N)nc32)O[C@@H]1COP(=O)(O)O[C@H]1C[C@H](n2cnc3c(=O)[nH]c(N)nc32)O[C@@H]1COP(=O)(O)O[C@@H]1C[C@@H](CO)N(C(=O)CCCCCNC(=O)c2ccc(C(=O)O)c(-c3c4ccc(=O)cc-4oc4cc(O)ccc34)c2)C1 (stereo partly specified)
7.64	CCCCCCCC/C=C\CCCCCCCC(=O)NCCCOCC(O)COP(=O)(O)O[C@@H]1C[C@@H](COP(=O)(O)O[C@H]2C[C@H](n3cc(C)c(=O)[nH]c3=O)O[C@@H]2COP(=O)(O)O[C@H]2C[C@H](n3cnc4c(=O)[nH]c(N)nc43)O[C@@H]2COP(=O)(O)O[C@H]2C[C@H](n3cc(C)c(=O)[nH]c3=O)O[C@@H]2COP(=O)(O)O[C@H]2C[C@H](n3cnc4c(=O)[nH]c(N)nc43)O[C@@H]2COP(=O)(O)O[C@H]2C[C@H](n3cc(C)c(=O)[nH]c3=O)O[C@@H]2COP(=O)(O)O[C@H]2C[C@H](n3cc(C)c(=O)[nH]c3=O)O[C@@H]2COP(=O)(O)O[C@H]2C[C@H](n3cc(C)c(=O)[nH]c3=O)O[C@@H]2COP(=O)(O)O[C@H]2C[C@H](n3cc(C)c(=O)[nH]c3=O)O[C@@H]2COP(=O)(O)O[C@H]2C[C@H](n3cc(C)c(=O)[nH]c3=O)O[C@@H]2COP(=O)(O)O[C@H]2C[C@H](n3cnc4c(=O)[nH]c(N)nc43)O[C@@H]2COP(=O)(O)O[C@H]2C[C@H](n3cnc4c(=O)[nH]c(N)nc43)O[C@@H]2CO)N(C(=O)CCCCCNC(=O)c2ccc(C(=O)O)c(-c3c4ccc(=O)cc-4oc4cc(O)ccc34)c2)C1 (stereo partly specified)
7.74	Cc1cn([C@H]2C[C@H](OP(=O)(S)OC[C@H]3O[C@@H](n4cc(C)c(=O)[nH]c4=O)C[C@@H]3OP(=O)(S)OC[C@H]3O[C@@H](n4cc(C)c(=O)[nH]c4=O)C[C@@H]3OP(=O)(S)OC[C@H]3O[C@@H](n4cnc5c(=O)[nH]c(N)nc54)C[C@@H]3OP(=O)(S)OC[C@H]3O[C@@H](n4cc(C)c(=O)[nH]c4=O)C[C@@H]3OP(=O)(S)OC[C@H]3O[C@@H](n4cnc5c(=O)[nH]c(N)nc54)C[C@@H]3OP(=O)(S)OC[C@H]3O[C@@H](n4cc(C)c(=O)[nH]c4=O)C[C@@H]3OP(=O)(S)OCCCCCCNC(=S)Nc3ccc(-c4c5cc(Br)c(=O)c(Br)c-5oc5c(Br)c(O)c(Br)cc45)c(C(=O)O)c3)[C@@H](COP(=O)(S)O[C@H]3C[C@H](n4cc(C)c(=O)[nH]c4=O)O[C@@H]3COP(=O)(S)O[C@H]3C[C@H](n4cc(C)c(=O)[nH]c4=O)O[C@@H]3COP(=O)(S)O[C@H]3C[C@H](n4cnc5c(=O)[nH]c(N)nc54)O[C@@H]3COP(=O)(S)O[C@H]3C[C@H](n4cnc5c(=O)[nH]c(N)nc54)O[C@@H]3CO)O2)c(=O)[nH]c1=O (stereo partly specified)
7.70	Cc1cn([C@H]2C[C@H](OP(=O)(O)OC[C@H]3O[C@@H](n4cc(C)c(=O)[nH]c4=O)C[C@@H]3OP(=O)(O)OC[C@H]3O[C@@H](n4cc(C)c(=O)[nH]c4=O)C[C@@H]3OP(=O)(S)OC[C@H]3O[C@@H](n4cnc5c(=O)[nH]c(N)nc54)C[C@@H]3OP(=O)(O)OC[C@H]3O[C@@H](n4cc(C)c(=O)[nH]c4=O)C[C@@H]3OP(=O)(S)OC[C@H]3O[C@@H](n4cnc5c(=O)[nH]c(N)nc54)C[C@@H]3OP(=O)(O)OC[C@H]3O[C@@H](n4cc(C)c(=O)[nH]c4=O)C[C@@H]3OP(=O)(S)OCCCCCCNC(=S)Nc3ccc(-c4c5cc(Br)c(=O)c(Br)c-5oc5c(Br)c(O)c(Br)cc45)c(C(=O)O)c3)[C@@H](COP(=O)(O)O[C@H]3C[C@H](n4cc(C)c(=O)[nH]c4=O)O[C@@H]3COP(=O)(O)O[C@H]3C[C@H](n4cc(C)c(=O)[nH]c4=O)O[C@@H]3COP(=O)(O)O[C@H]3C[C@H](n4cnc5c(=O)[nH]c(N)nc54)O[C@@H]3COP(=O)(O)O[C@H]3C[C@H](n4cnc5c(=O)[nH]c(N)nc54)O[C@@H]3CO)O2)c(=O)[nH]c1=O (stereo partly specified)
7.66	Cc1cn([C@H]2C[C@H](OP(=O)(O)OC[C@H]3O[C@@H](n4cnc5c(=O)[nH]c(N)nc54)C[C@@H]3OP(=O)(O)OC[C@H]3O[C@@H](n4cc(C)c(=O)[nH]c4=O)C[C@@H]3OP(=O)(O)OC[C@H]3O[C@@H](n4cnc5c(=O)[nH]c(N)nc54)C[C@@H]3OP(=O)(O)OC[C@H]3O[C@@H](n4cc(C)c(=O)[nH]c4=O)C[C@@H]3OP(=O)(O)OCCCCCCNC(=S)Nc3ccc(-c4c5cc(Br)c(=O)c(Br)c-5oc5c(Br)c(O)c(Br)cc45)c(C(=O)O)c3)[C@@H](COP(=O)(O)O[C@H]3C[C@H](n4cc(C)c(=O)[nH]c4=O)O[C@@H]3COP(=O)(S)O[C@H]3C[C@H](n4cc(C)c(=O)[nH]c4=O)O[C@@H]3COP(=O)(S)O[C@H]3C[C@H](n4cc(C)c(=O)[nH]c4=O)O[C@@H]3COP(=O)(S)O[C@H]3C[C@H](n4cc(C)c(=O)[nH]c4=O)O[C@@H]3COP(=O)(O)O[C@H]3C[C@H](n4cnc5c(=O)[nH]c(N)nc54)O[C@@H]3COP(=O)(O)O[C@H]3C[C@H](n4cnc5c(=O)[nH]c(N)nc54)O[C@@H]3CO)O2)c(=O)[nH]c1=O (stereo partly specified)
7.62	Cc1cn([C@H]2C[C@H](OP(=O)(O)OC[C@H]3O[C@@H](n4cc(C)c(=O)[nH]c4=O)C[C@@H]3OP(=O)(S)OC[C@H]3O[C@@H](n4cc(C)c(=O)[nH]c4=O)C[C@@H]3OP(=O)(O)OC[C@H]3O[C@@H](n4cnc5c(=O)[nH]c(N)nc54)C[C@@H]3OP(=O)(O)OC[C@H]3O[C@@H](n4cc(C)c(=O)[nH]c4=O)C[C@@H]3OP(=O)(S)OC[C@H]3O[C@@H](n4cnc5c(=O)[nH]c(N)nc54)C[C@@H]3OP(=O)(O)OC[C@H]3O[C@@H](n4cc(C)c(=O)[nH]c4=O)C[C@@H]3OP(=O)(O)OCCCCCCNC(=S)Nc3ccc(-c4c5cc(Br)c(=O)c(Br)c-5oc5c(Br)c(O)c(Br)cc45)c(C(=O)O)c3)[C@@H](COP(=O)(O)O[C@H]3C[C@H](n4cc(C)c(=O)[nH]c4=O)O[C@@H]3COP(=O)(S)O[C@H]3C[C@H](n4cc(C)c(=O)[nH]c4=O)O[C@@H]3COP(=O)(O)O[C@H]3C[C@H](n4cnc5c(=O)[nH]c(N)nc54)O[C@@H]3COP(=O)(O)O[C@H]3C[C@H](n4cnc5c(=O)[nH]c(N)nc54)O[C@@H]3CO)O2)c(=O)[nH]c1=O (stereo partly specified)
5.92	Cc1cn([C@H]2C[C@H](O)[C@@H](COP(=O)(O)O[C@H]3CCO[C@@H]3COP(=O)(O)O[C@H]3CCO[C@@H]3COP(=O)(O)O[C@H]3CCO[C@@H]3COP(=O)(O)O[C@H]3CCO[C@@H]3COP(=O)(O)O[C@H]3CCO[C@@H]3COP(=O)(O)O[C@H]3CCO[C@@H]3COP(=O)(O)O[C@H]3CCO[C@@H]3COP(=O)(O)O[C@H]3CCO[C@@H]3COP(=O)(O)O[C@H]3CCO[C@@H]3COP(=O)(O)O[C@H]3CCO[C@@H]3COP(=O)(O)OCCCCCCNC(=O)c3cc(Cl)c(C(=O)O)c(-c4c5cc(Cl)c(=O)c(Cl)c-5oc5c(Cl)c(O)c(Cl)cc45)c3Cl)O2)c(=O)[nH]c1=O
6.55	Cc1cn([C@H]2C[C@H](OP(=O)(O)OC[C@H]3O[C@@H](n4cnc5c(=O)[nH]c(N)nc54)C[C@@H]3OP(=O)(O)OC[C@H]3O[C@@H](n4cc(C)c(=O)[nH]c4=O)C[C@@H]3OP(=O)(O)OC[C@H]3O[C@@H](n4cnc5c(=O)[nH]c(N)nc54)C[C@@H]3OP(=O)(O)OC[C@H]3O[C@@H](n4cc(C)c(=O)[nH]c4=O)C[C@@H]3O)[C@@H](COP(=O)(O)O[C@H]3CCO[C@@H]3COP(=O)(O)O[C@H]3CCO[C@@H]3COP(=O)(O)O[C@H]3CCO[C@@H]3COP(=O)(O)O[C@H]3CCO[C@@H]3COP(=O)(O)O[C@H]3CCO[C@@H]3COP(=O)(O)O[C@H]3CCO[C@@H]3COP(=O)(O)OCCCCCCNC(=O)c3cc(Cl)c(C(=O)O)c(-c4c5cc(Cl)c(=O)c(Cl)c-5oc5c(Cl)c(O)c(Cl)cc45)c3Cl)O2)c(=O)[nH]c1=O
6.60	Cc1cn([C@H]2C[C@H](OP(=O)(O)OC[C@H]3OCC[C@@H]3OP(=O)(O)OC[C@H]3OCC[C@@H]3OP(=O)(O)OC[C@H]3OCC[C@@H]3OP(=O)(O)OC[C@H]3OCC[C@@H]3OP(=O)(O)OC[C@H]3OCC[C@@H]3OP(=O)(O)OC[C@H]3OCC[C@@H]3OP(=O)(O)OC[C@H]3O[C@@H](n4cc(C)c(=O)[nH]c4=O)C[C@@H]3O)[C@@H](COP(=O)(O)O[C@H]3C[C@H](n4cc(C)c(=O)[nH]c4=O)O[C@@H]3COP(=O)(O)O[C@H]3C[C@H](n4cnc5c(=O)[nH]c(N)nc54)O[C@@H]3COP(=O)(O)O[C@H]3C[C@H](n4cnc5c(=O)[nH]c(N)nc54)O[C@@H]3COP(=O)(O)OCCCCCCNC(=O)c3cc(Cl)c(C(=O)O)c(-c4c5cc(Cl)c(=O)c(Cl)c-5oc5c(Cl)c(O)c(Cl)cc45)c3Cl)O2)c(=O)[nH]c1=O
5.89	Cc1cn([C@H]2C[C@H](O)[C@@H](COP(=O)(O)OCCCOP(=O)(O)OCCCOP(=O)(O)OCCCOP(=O)(O)OCCCOP(=O)(O)OCCCOP(=O)(O)OCCCOP(=O)(O)OCCCOP(=O)(O)OCCCOP(=O)(O)OCCCOP(=O)(O)OCCCOP(=O)(O)OCCCCCCNC(=O)c3cc(Cl)c(C(=O)O)c(-c4c5cc(Cl)c(=O)c(Cl)c-5oc5c(Cl)c(O)c(Cl)cc45)c3Cl)O2)c(=O)[nH]c1=O
6.60	Cc1cn([C@H]2C[C@H](OP(=O)(O)OC[C@H]3O[C@@H](n4cnc5c(=O)[nH]c(N)nc54)C[C@@H]3OP(=O)(O)OC[C@H]3O[C@@H](n4cc(C)c(=O)[nH]c4=O)C[C@@H]3OP(=O)(O)OC[C@H]3O[C@@H](n4cnc5c(=O)[nH]c(N)nc54)C[C@@H]3OP(=O)(O)OC[C@H]3O[C@@H](n4cc(C)c(=O)[nH]c4=O)C[C@@H]3O)[C@@H](COP(=O)(O)OCCCOP(=O)(O)OCCCOP(=O)(O)OCCCOP(=O)(O)OCCCOP(=O)(O)OCCCOP(=O)(O)OCCCOP(=O)(O)OCCCCCCNC(=O)c3cc(Cl)c(C(=O)O)c(-c4c5cc(Cl)c(=O)c(Cl)c-5oc5c(Cl)c(O)c(Cl)cc45)c3Cl)O2)c(=O)[nH]c1=O
